Measurements published in ChEMBL document CHEMBL3991601, “The target landscape of clinical kinase drugs” (Science, 2017).
Activity calls are given as the source filed them. On the calls: in the data inactive means no Kd found up to 30 µM.

Key:
[1] = target: T1, Dual specificity mitogen-activated protein kinase kinase 4 (Homo sapiens, UniProt P45985)
T1 sequence (P45985 whole entry): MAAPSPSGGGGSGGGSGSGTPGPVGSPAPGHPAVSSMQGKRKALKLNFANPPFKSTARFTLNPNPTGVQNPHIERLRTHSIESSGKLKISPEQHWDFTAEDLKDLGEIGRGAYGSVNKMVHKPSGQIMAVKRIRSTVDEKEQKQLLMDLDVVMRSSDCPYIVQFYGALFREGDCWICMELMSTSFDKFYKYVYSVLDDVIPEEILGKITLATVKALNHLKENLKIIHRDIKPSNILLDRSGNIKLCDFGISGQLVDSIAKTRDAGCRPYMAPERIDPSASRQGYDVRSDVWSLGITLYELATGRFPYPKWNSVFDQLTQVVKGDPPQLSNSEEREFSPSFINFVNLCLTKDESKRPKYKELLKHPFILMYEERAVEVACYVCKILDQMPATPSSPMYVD

[2] = target: Dual specificity tyrosine-phosphorylation-regulated kinase 1B (Homo sapiens, UniProt Q9Y463)
Dual specificity tyrosine-phosphorylation-regulated kinase 1B, sequence (Q9Y463 whole entry): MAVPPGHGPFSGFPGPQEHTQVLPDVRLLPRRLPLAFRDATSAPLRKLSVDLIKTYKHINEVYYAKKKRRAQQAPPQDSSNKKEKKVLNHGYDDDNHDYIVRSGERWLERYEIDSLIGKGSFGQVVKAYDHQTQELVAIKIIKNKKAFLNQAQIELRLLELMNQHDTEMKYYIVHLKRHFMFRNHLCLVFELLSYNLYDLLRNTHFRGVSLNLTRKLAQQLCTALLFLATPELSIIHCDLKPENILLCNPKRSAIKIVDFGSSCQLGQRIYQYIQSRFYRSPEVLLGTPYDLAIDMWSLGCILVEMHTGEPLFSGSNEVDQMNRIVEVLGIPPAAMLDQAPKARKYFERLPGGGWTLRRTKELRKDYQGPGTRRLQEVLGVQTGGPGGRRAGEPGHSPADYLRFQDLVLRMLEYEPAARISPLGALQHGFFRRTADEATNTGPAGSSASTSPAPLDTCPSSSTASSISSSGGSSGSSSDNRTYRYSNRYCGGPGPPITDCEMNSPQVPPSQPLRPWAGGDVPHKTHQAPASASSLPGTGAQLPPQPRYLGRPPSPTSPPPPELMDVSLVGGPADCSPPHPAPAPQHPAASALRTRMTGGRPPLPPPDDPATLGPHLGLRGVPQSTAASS

[3] = target: Tyrosine-protein kinase Fgr (Homo sapiens, UniProt P09769)
Tyrosine-protein kinase Fgr, sequence (P09769 whole entry): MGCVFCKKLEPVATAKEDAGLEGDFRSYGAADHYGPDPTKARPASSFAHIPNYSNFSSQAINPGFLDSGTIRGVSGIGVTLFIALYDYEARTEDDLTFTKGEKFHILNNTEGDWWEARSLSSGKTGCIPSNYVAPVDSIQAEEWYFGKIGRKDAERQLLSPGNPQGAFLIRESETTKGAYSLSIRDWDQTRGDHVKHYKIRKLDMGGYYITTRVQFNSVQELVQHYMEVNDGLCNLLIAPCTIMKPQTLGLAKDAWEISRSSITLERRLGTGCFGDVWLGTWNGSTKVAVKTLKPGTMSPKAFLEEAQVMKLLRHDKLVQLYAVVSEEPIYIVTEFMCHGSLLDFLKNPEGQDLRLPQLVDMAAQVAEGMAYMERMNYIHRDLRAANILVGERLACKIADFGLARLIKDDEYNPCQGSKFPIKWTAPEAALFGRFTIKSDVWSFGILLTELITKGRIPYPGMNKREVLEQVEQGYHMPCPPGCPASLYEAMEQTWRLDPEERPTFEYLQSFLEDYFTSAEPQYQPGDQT

[4] = target: Serine/threonine-protein kinase MRCK gamma (Homo sapiens, UniProt Q6DT37)
Serine/threonine-protein kinase MRCK gamma, sequence (Q6DT37 whole entry): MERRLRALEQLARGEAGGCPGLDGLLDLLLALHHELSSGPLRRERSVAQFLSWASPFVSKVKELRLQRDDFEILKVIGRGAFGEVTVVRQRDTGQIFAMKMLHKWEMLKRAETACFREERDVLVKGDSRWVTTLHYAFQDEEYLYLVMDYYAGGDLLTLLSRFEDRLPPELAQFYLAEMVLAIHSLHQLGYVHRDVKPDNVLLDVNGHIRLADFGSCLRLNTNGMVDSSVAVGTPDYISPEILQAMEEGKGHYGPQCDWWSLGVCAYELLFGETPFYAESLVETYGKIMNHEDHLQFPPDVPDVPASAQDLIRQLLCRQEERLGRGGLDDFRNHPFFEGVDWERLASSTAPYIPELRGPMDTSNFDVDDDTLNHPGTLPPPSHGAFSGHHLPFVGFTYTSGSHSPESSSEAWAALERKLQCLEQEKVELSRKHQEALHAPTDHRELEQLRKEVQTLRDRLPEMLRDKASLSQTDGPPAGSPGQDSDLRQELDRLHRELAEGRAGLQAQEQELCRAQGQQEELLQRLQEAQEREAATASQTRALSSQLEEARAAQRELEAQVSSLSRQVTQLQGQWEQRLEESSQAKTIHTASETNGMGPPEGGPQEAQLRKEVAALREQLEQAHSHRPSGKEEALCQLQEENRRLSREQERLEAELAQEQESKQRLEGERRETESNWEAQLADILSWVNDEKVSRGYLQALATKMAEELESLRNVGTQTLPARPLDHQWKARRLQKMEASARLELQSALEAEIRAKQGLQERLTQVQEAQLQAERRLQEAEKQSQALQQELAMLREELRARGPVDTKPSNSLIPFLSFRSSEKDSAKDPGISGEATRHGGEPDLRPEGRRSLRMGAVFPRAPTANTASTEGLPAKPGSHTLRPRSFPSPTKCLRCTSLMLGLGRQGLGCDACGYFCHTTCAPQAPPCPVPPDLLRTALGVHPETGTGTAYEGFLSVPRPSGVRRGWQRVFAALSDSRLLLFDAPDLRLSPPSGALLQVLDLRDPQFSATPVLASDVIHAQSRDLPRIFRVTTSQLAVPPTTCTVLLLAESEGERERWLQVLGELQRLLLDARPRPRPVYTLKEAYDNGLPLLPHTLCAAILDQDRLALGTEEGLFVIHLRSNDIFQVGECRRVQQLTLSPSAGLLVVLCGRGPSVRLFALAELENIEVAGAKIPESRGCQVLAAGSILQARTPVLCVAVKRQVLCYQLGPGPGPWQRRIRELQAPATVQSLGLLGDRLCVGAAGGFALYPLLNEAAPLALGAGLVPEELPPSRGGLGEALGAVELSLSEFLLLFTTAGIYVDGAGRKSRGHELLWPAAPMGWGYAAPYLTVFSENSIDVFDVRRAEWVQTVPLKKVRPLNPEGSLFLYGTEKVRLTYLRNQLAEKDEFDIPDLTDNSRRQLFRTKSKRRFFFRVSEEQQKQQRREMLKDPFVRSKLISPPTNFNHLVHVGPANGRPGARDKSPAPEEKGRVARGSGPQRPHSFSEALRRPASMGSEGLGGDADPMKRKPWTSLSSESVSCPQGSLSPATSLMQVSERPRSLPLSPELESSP

[5] = target: Serine/threonine-protein kinase 38 (Homo sapiens, UniProt Q15208)
[6] = target: MAP kinase-activated protein kinase 3 (Homo sapiens, UniProt Q16644)
MAP kinase-activated protein kinase 3, sequence (Q16644 whole entry): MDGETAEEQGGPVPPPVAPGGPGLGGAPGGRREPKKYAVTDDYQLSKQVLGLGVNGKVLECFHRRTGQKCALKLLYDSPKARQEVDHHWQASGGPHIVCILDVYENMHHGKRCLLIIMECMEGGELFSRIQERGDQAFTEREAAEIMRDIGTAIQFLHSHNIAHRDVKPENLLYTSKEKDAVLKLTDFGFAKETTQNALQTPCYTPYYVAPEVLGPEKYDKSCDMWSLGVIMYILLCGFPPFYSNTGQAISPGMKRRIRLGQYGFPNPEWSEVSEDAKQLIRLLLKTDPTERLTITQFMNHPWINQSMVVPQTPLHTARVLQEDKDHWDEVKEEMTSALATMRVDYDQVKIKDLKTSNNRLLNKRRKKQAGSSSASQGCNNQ

[7] = target: Eukaryotic peptide chain release factor GTP-binding subunit ERF3B (Homo sapiens, UniProt Q8IYD1)
[8] = target: Tyrosine-protein kinase JAK2 (Homo sapiens, UniProt O60674)
[9] = target: T2, Isoleucine--tRNA ligase, mitochondrial (Homo sapiens, UniProt Q9NSE4)
T2 sequence (Q9NSE4 whole entry): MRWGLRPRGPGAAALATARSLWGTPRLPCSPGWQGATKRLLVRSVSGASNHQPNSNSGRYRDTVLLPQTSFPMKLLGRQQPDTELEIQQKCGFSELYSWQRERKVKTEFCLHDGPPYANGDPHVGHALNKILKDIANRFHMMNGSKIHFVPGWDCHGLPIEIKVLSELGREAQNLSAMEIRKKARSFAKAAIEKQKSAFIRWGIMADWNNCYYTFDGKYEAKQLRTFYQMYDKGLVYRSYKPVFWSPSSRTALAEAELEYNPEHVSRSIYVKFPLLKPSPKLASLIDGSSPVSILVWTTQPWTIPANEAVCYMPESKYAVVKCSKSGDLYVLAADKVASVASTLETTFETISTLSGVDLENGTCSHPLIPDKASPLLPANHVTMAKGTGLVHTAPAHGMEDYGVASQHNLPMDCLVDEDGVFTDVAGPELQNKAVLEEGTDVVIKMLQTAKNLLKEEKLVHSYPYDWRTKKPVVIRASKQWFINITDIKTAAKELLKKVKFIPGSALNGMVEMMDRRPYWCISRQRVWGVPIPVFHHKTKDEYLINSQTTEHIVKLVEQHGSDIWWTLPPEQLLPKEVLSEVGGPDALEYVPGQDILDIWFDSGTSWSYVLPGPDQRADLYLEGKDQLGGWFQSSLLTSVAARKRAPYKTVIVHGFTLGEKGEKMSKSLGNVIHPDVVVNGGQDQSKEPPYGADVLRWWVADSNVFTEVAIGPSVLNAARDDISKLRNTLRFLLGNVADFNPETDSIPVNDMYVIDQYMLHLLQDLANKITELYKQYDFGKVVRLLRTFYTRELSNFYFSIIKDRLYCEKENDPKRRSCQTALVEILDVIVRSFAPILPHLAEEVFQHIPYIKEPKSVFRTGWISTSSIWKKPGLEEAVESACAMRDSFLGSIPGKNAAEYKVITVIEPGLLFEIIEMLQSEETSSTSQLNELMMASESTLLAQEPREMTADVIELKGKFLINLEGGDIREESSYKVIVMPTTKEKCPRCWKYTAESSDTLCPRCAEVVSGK

[10] = target: Cyclin-dependent kinase 10 (Homo sapiens, UniProt Q15131)
Cyclin-dependent kinase 10, sequence (Q15131 whole entry): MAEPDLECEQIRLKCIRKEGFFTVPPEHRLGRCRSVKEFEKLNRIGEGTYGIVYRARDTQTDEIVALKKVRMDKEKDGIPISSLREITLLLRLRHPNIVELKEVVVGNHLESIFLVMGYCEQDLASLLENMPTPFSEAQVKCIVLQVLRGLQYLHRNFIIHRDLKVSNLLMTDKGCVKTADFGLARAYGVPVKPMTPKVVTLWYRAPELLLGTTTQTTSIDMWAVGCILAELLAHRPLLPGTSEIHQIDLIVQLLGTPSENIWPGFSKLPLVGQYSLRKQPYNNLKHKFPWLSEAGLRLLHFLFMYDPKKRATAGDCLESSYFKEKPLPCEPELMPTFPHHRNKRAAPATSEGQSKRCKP

[11] = target: T3, Tyrosine-protein kinase Mer (Homo sapiens, UniProt Q12866)
T3 sequence (Q12866 whole entry): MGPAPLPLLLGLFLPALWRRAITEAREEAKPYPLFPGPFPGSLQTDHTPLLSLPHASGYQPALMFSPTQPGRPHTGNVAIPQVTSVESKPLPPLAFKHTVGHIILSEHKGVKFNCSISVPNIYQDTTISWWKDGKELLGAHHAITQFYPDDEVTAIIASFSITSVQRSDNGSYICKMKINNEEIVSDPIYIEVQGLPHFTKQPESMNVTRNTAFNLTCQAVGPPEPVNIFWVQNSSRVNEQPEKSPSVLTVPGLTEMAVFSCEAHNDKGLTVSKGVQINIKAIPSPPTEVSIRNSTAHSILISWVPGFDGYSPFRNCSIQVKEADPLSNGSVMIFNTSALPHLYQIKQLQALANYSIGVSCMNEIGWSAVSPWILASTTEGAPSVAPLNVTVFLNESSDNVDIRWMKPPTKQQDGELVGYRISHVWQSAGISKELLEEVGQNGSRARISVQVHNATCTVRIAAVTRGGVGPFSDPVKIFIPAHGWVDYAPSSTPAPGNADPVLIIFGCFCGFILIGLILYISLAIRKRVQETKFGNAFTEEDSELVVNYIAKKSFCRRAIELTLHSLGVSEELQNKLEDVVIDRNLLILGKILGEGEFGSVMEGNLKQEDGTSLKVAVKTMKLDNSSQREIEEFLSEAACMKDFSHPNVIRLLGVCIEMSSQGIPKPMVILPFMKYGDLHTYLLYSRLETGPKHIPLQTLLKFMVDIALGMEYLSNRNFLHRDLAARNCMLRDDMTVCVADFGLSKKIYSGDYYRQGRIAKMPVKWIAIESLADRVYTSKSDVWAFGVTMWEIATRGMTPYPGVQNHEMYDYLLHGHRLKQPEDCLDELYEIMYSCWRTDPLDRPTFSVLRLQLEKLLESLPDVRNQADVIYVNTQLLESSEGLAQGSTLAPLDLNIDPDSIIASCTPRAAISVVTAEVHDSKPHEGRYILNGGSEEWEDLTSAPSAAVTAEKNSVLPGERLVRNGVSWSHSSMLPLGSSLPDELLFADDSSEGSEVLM

[12] = target: ALK tyrosine kinase receptor (Homo sapiens, UniProt Q9UM73); type: subcellular, K-562, COLO 205, SK-N-BE(2) and MV-4-11, Cell lysate; settings: read-out: Kd apparent
ALK tyrosine kinase receptor, sequence (Q9UM73 whole entry): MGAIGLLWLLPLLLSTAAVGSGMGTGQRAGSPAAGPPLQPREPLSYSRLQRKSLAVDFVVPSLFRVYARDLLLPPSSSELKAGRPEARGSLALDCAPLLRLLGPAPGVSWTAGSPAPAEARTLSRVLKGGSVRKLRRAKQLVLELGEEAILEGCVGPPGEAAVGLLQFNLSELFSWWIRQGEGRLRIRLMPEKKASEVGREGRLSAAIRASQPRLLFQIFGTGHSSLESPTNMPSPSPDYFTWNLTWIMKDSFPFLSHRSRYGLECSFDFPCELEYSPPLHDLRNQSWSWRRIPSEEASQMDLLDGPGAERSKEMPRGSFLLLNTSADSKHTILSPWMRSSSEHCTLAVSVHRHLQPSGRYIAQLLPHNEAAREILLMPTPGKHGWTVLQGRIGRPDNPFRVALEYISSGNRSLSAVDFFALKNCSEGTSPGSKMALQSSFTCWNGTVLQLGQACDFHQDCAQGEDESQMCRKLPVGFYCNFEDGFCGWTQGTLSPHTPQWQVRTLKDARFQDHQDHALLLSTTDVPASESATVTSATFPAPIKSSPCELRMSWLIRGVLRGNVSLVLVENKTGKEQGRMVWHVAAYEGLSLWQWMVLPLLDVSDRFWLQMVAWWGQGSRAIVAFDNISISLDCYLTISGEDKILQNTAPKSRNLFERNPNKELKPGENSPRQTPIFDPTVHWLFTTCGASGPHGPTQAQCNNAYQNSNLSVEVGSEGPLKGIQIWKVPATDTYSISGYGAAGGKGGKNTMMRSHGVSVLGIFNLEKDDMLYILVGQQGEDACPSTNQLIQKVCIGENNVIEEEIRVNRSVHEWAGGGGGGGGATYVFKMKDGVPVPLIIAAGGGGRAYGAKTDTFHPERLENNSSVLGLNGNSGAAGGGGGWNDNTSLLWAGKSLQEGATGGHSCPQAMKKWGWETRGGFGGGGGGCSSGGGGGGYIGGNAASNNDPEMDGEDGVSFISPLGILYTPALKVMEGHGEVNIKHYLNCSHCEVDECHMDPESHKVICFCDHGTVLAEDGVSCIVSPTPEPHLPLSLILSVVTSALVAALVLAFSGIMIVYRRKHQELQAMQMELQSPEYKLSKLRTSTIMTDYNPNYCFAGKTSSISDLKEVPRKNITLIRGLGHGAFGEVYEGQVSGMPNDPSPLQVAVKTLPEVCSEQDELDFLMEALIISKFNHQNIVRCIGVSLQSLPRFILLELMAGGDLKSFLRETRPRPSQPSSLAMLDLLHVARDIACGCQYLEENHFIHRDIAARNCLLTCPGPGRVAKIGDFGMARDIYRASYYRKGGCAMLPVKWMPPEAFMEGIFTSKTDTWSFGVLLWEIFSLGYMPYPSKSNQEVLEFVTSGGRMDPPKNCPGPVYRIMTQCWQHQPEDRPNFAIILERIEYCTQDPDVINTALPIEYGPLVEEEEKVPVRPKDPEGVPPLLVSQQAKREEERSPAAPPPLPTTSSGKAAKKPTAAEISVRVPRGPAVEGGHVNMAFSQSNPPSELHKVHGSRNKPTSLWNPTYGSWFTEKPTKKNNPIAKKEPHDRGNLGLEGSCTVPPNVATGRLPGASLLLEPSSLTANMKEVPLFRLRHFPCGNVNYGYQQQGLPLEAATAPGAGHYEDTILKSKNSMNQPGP

| Compound | Kd [1] | Kd [2] | Kd [3] | Kd [4] | Kd [5] | Kd [6] | Kd [7] | Kd [8] | Kd [9] | Kd [10] | Kd [11] | Kd [12] |
| --- | --- | --- | --- | --- | --- | --- | --- | --- | --- | --- | --- | --- |
| CC[C@H](Nc1ncnc2[nH]cnc12)c1nc2cccc(F)c2c(=O)n1-c1ccccc1 [IDELALISIB] | > 30 µM (inactive) | > 30 µM (inactive) | > 30 µM (inactive) | > 30 µM (inactive) | > 30 µM (inactive) | > 30 µM (inactive) | – | – | – | – | – | – |
| O=C(O)[C@]1(Cc2cccc(Nc3nccs3)n2)CC[C@@H](Oc2cccc(Cl)c2F)CC1 [MK-5108] | > 30 µM (inactive) | > 30 µM (inactive) | > 30 µM (inactive) | > 30 µM (inactive) | > 30 µM (inactive) | > 30 µM (inactive) | > 30 µM (inactive) | 0.025 µM (active) | > 30 µM (inactive) | – | – | – |
| CO[C@H]1C[C@@H]2CC[C@@H](C)[C@@](O)(O2)C(=O)C(=O)N2CCCC[C@H]2C(=O)O[C@H]([C@H](C)C[C@@H]2CC[C@@H](OCCO)[C@H](OC)C2)CC(=O)[C@H](C)/C=C(\C)[C@@H](O)[C@@H](OC)C(=O)[C@H](C)C[C@H](C)/C=C/C=C/C=C/1C [EVEROLIMUS] | – | – | > 30 µM (inactive) | > 30 µM (inactive) | – | – | > 30 µM (inactive) | – | – | – | – | – |
| CC(C)Nc1cc(-c2c[nH]c(C(=O)N[C@H](CO)c3cccc(Cl)c3)c2)c(Cl)cn1 [ULIXERTINIB] | > 30 µM (inactive) | > 30 µM (inactive) | – | > 30 µM (inactive) | – | > 30 µM (inactive) | > 30 µM (inactive) | – | > 30 µM (inactive) | > 30 µM (inactive) | > 30 µM (inactive) | – |
| COc1cc2nccc(Oc3ccc(NC(=O)NC4CC4)c(Cl)c3)c2cc1C(N)=O [LENVATINIB] | – | – | – | > 30 µM (inactive) | – | > 30 µM (inactive) | – | > 30 µM (inactive) | > 30 µM (inactive) | – | – | – |
| OCCn1cc(-c2cnc3nnn(Cc4ccc5ncccc5c4)c3n2)cn1 [PF-04217903] | > 30 µM (inactive) | – | > 30 µM (inactive) | > 30 µM (inactive) | > 30 µM (inactive) | > 30 µM (inactive) | > 30 µM (inactive) | – | > 30 µM (inactive) | – | > 30 µM (inactive) | – |
| CC(=O)Nc1cccc(-n2c(=O)n(C3CC3)c(=O)c3c(Nc4ccc(I)cc4F)n(C)c(=O)c(C)c32)c1 [TRAMETINIB] | > 30 µM (inactive) | > 30 µM (inactive) | > 30 µM (inactive) | > 30 µM (inactive) | – | > 30 µM (inactive) | > 30 µM (inactive) | > 30 µM (inactive) | > 30 µM (inactive) | > 30 µM (inactive) | – | – |
| COC(=O)N[C@@H](C)CNc1nccc(-c2cn(C(C)C)nc2-c2cc(Cl)cc(NS(C)(=O)=O)c2F)n1 [ENCORAFENIB] | – | > 30 µM (inactive) | – | > 30 µM (inactive) | – | – | > 30 µM (inactive) | > 30 µM (inactive) | > 30 µM (inactive) | > 30 µM (inactive) | > 30 µM (inactive) | – |
| COc1ccc(-c2ccc3c(N4CCOC[C@@H]4C)nc(N4CCOC[C@@H]4C)nc3n2)cc1CO [AZD-8055] | > 30 µM (inactive) | > 30 µM (inactive) | – | > 30 µM (inactive) | – | – | – | – | > 30 µM (inactive) | – | – | – |
| COc1cc(CCc2cc(NC(=O)c3ccc(N4C[C@@H](C)N[C@@H](C)C4)cc3)n[nH]2)cc(OC)c1 [AZD-4547] | – | – | – | > 30 µM (inactive) | > 30 µM (inactive) | – | – | – | – | – | > 30 µM (inactive) | > 30 µM (inactive) |
| CCN1CCN(Cc2ccc(-c3cc4c(N[C@H](C)c5ccccc5)ncnc4[nH]3)cc2)CC1 [AEE-788] | – | – | – | > 30 µM (inactive) | – | > 30 µM (inactive) | – | – | – | – | > 30 µM (inactive) | > 30 µM (inactive) |
| O=C(Nc1cccc(Cl)c1)Nc1ncc(CCNc2ncnc3ccsc23)s1 [SNS-314] | > 30 µM (inactive) | – | – | > 30 µM (inactive) | – | – | > 30 µM (inactive) | – | > 30 µM (inactive) | > 30 µM (inactive) | – | – |
| CNC(=O)c1ccc(-c2cnc3ncc(Cc4ccc5ncccc5c4)n3n2)cc1F [CAPMATINIB] | – | – | – | > 30 µM (inactive) | > 30 µM (inactive) | – | > 30 µM (inactive) | – | > 30 µM (inactive) | – | > 30 µM (inactive) | – |
| CC[C@@H]1C(=O)N(C)c2cnc(Nc3ccc(C(=O)N[C@H]4CC[C@H](N5CCN(CC6CC6)CC5)CC4)cc3OC)nc2N1C(C)C [VOLASERTIB] | – | – | > 30 µM (inactive) | > 30 µM (inactive) | – | – | – | > 30 µM (inactive) | > 30 µM (inactive) | > 30 µM (inactive) | – | – |
| Cc1cc2c(F)c(Oc3ncnn4cc(OC[C@@H](C)OC(=O)[C@H](C)N)c(C)c34)ccc2[nH]1 [BRIVANIB ALANINATE] | > 30 µM (inactive) | > 30 µM (inactive) | – | > 30 µM (inactive) | – | > 30 µM (inactive) | – | > 30 µM (inactive) | – | – | – | – |
| CN1N=C(N)c2cn([C@@H]3O[C@H](COP(=O)(O)O)[C@@H](O)[C@H]3O)c3ncnc1c23 [TRICIRIBINE PHOSPHATE] | – | > 30 µM (inactive) | > 30 µM (inactive) | > 30 µM (inactive) | – | – | – | – | > 30 µM (inactive) | – | – | – |
| O=c1sn(-c2cccc3ccccc23)c(=O)n1Cc1ccccc1 [TIDEGLUSIB] | – | – | – | > 30 µM (inactive) | – | – | > 30 µM (inactive) | – | > 30 µM (inactive) | > 30 µM (inactive) | > 30 µM (inactive) | – |
| CNS(=O)(=O)Nc1nccc(Cc2c(C)c3ccc(Oc4ncccn4)cc3oc2=O)c1F [AVUTOMETINIB] | > 30 µM (inactive) | – | – | > 30 µM (inactive) | – | > 30 µM (inactive) | – | > 30 µM (inactive) | – | – | – | – |
| Cc1ccc(S(=O)(=O)Nc2nc3ccccc3nc2Nc2ccc3nsnc3c2)cc1 | – | – | – | – | – | – | – | – | > 30 µM (inactive) | – | > 30 µM (inactive) | > 30 µM (inactive) |
| CCCS(=O)(=O)Nc1ccc(F)c(C(=O)c2c[nH]c3ncc(-c4ccc(Cl)cc4)cc23)c1F [VEMURAFENIB] | – | > 30 µM (inactive) | > 30 µM (inactive) | > 30 µM (inactive) | – | – | > 30 µM (inactive) | > 30 µM (inactive) | – | > 30 µM (inactive) | > 30 µM (inactive) | – |
